# Test results: article PMC10228259 (Nature, 2023)
# Like-named read-outs stand apart in the source and are kept apart here.
# T1: chemotactile receptor for terpenes 1 (CRT1, previously CR518) (Octopus bimaculoides, UniProt A0A0L8FVQ9)
# T1 sequence (A0A0L8FVQ9 21-399): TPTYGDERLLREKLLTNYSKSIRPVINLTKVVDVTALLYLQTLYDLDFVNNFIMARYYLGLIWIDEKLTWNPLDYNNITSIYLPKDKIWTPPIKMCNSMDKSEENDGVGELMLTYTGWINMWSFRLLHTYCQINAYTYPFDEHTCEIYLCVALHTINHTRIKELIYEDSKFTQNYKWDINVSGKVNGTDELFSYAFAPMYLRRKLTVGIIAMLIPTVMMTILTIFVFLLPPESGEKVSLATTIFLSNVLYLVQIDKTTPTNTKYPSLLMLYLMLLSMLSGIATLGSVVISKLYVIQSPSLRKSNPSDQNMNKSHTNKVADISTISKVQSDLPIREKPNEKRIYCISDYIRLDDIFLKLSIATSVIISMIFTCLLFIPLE
# T2: chemotactile receptor for terpenes 1 (CRT1) (Octopus bimaculoides, UniProt A0A0L8FVQ9)
# T2 sequence (A0A0L8FVQ9 21-399): T1 sequence (A0A0L8FVQ9 21-399)
# B1: chemotactile receptor for terpenes 1 (CRT1) (receptor, Octopus bimaculoides, UniProt A0A0L8FVQ9 21-399, looked up)
# chain: T1 sequence (A0A0L8FVQ9 21-399)
# modifications: N-linked glycans
# Experiments:
# [1] = target: T1, chemotactile receptor for terpenes 1 (CRT1, previously CR518); test: cryo-EM structure at […] Å; assay type: cell-based
# [2] = target: T2, chemotactile receptor for terpenes 1 (CRT1); test: patch clamp dose-response in HEK […] cells expressing CRT1; assay type: cell-based
# [3] = target: T2, chemotactile receptor for terpenes 1 (CRT1); test: as above; assay type: cell-based; remark: listed apart in the source
# cryo-EM structure = target: the molecule itself; test: cryo-EM structure
molecule,measurement,setting,value
"C[C@@H]1CC[C@@]2(OC1)O[C@H]1C[C@H]3[C@@H]4CC=C5C[C@@H](OCCC(CO[C@@H]6O[C@H](CO)[C@@H](O[C@H]7O[C@H](CO)[C@@H](O)[C@H](O)[C@H]7O)[C@H](O)[C@H]6O)CO[C@@H]6O[C@H](CO)[C@@H](O[C@H]7O[C@H](CO)[C@@H](O)[C@H](O)[C@H]7O)[C@H](O)[C@H]6O)CC[C@]5(C)[C@H]4CC[C@]3(C)[C@H]1[C@@H]2C [GDN, glyco-diosgenin]",EC50,[1],0.125 µM
C=C(C)[C@@H]1CCC2=CC(=O)C[C@@H](C)[C@]2(C)C1 [nootkatone],EC50,[2],16.1 µM
C[C@H]1CCCC(=O)CCC/C=C/c2cc(O)cc(O)c2C(=O)O1 [zearalenone],EC50,[3],4.8 µM
B1,stoichiometry N,cryo-EM structure,5
